ChEMBL document CHEMBL1697821, “Development of a phospholipidosis database and predictive quantitative structure-activity relationship (QSAR) models” (Toxicol Mech Methods, 2008)

Tested on: Phospholipidosis
Test: Literature-mined public compounds from Kruhlak et al phospholipidosis modelling dataset

How did the Phospholipidosis turn out when CC(C)NC[C@H](O)COc1ccc(O)cc1 [PRENALTEROL] was run?
The Phospholipidosis was “Negative: based on the absence of positive reported data from WMDD”.

With COc1cccc2c1C(=O)c1c(O)c3c(c(O)c1C2=O)C[C@@](O)(C(=O)CO)C[C@@H]3O[C@H]1C[C@H](N)[C@H](O)[C@H](C)O1 [DOXORUBICIN] as the molecule, how does the Phospholipidosis read?
The Phospholipidosis was “Negative: confirmed by electron microscopy”.

Which Phospholipidosis does the source give for CCC(C)(C)N/C(N)=N/C#N [GUANCYDINE] here?
The Phospholipidosis was “Negative: based on the absence of positive reported data from WMDD”.

How did the Phospholipidosis turn out when CN1CCCN(C(c2ccccc2)c2ccc(Cl)cc2)CC1 (stereo not given) [HOMOCHLORCYCLIZINE] was run?
Its Phospholipidosis is “Positive: strong inducer confirmed by electron microscopy”.

For CC(C)(C)c1ccc(CN2CCN(C(c3ccccc3)c3ccc(Cl)cc3)CC2)cc1 (stereo not given) [BUCLIZINE], which Phospholipidosis is on record?
The Phospholipidosis was “Negative: based on the absence of positive reported data from WMDD”.

CN[C@@H](C)[C@H](O)c1ccccc1 [EPHEDRINE] was tested. Which Phospholipidosis did it give?
The Phospholipidosis was “Negative: based on the absence of positive reported data from WMDD”.

Which Phospholipidosis does the source give for CN1CCN(C(c2ccccc2)c2ccccc2)CC1 [CYCLIZINE] here?
Its Phospholipidosis is “Positive: strong inducer confirmed by electron microscopy”.

For O=C1Cc2cc(CCN3CCN(c4nsc5ccccc45)CC3)c(Cl)cc2N1 [ZIPRASIDONE], which Phospholipidosis is on record?
Its Phospholipidosis is “Negative: based on the absence of positive reported data from WMDD”.

For CN(C)CCC=C1c2ccccc2CCc2ccccc21 [AMITRIPTYLINE], which Phospholipidosis is on record?
The Phospholipidosis was “Positive: strong inducer confirmed by electron microscopy”.

Which Phospholipidosis does the source give for CCOC(=O)Nc1ccc2c(c1)N(C(=O)CCN1CCOCC1)c1ccccc1S2 [MORICIZINE] here?
Its Phospholipidosis is “Negative: based on the absence of positive reported data from WMDD”.

For C=CC1=C(C(=O)O)N2C(=O)[C@@H](NC(=O)/C(=N\OCC(=O)O)c3csc(N)n3)[C@H]2SC1 [CEFIXIME], which Phospholipidosis is on record?
Its Phospholipidosis is “Negative: based on the absence of positive reported data from WMDD”.

How did the Phospholipidosis turn out when CNC(=O)c1c(I)c(NC(C)=O)c(I)c(C(=O)O)c1I [IOTHALAMIC ACID] was run?
Its Phospholipidosis is “Negative: based on the absence of positive reported data from WMDD”.

CC(C(=O)O)c1ccc2c(c1)Cc1cccnc1O2 (stereo not given) [PRANOPROFEN] was tested. Which Phospholipidosis did it give?
The Phospholipidosis was “Negative: based on the absence of positive reported data from WMDD”.

CCC(c1ccc2cc(OC)ccc2c1)C(C)(C)C(=O)O (stereo not given) was tested. Which Phospholipidosis did it give?
Its Phospholipidosis is “Negative: based on the absence of positive reported data from WMDD”.

For CCCOC(=O)c1ccc(O)cc1 [PROPYLPARABEN], which Phospholipidosis is on record?
The Phospholipidosis was “Negative: based on the absence of positive reported data from WMDD”.

With CC(=O)O[C@]1(C(C)=O)CC[C@H]2[C@@H]3C=C(Cl)C4=CC(=O)CC[C@]4(C)[C@H]3CC[C@@]21C [CHLORMADINONE ACETATE] as the molecule, how does the Phospholipidosis read?
Its Phospholipidosis is “Negative: based on the absence of positive reported data from WMDD”.

For CCOC(=O)C1N=C(c2ccccc2F)c2cc(Cl)ccc2NC1=O (stereo not given) [ETHYL LOFLAZEPATE], which Phospholipidosis is on record?
The Phospholipidosis was “Positive: strong inducer confirmed by electron microscopy”.

Which Phospholipidosis does the source give for Oc1c(Cl)cc(Cl)c2cccnc12 [CHLOROXINE] here?
The Phospholipidosis was “Negative: based on the absence of positive reported data from WMDD”.

For COc1nccnc1NS(=O)(=O)c1ccc(N)cc1, which Phospholipidosis is on record?
The Phospholipidosis was “Negative: based on the absence of positive reported data from WMDD”.

With CCCNC(=O)NS(=O)(=O)c1ccc(Cl)cc1 [CHLORPROPAMIDE] as the molecule, how does the Phospholipidosis read?
Its Phospholipidosis is “Negative: based on the absence of positive reported data from WMDD”.

How did the Phospholipidosis turn out when N[C@@H](CSCC(=O)O)C(=O)O [CARBOCYSTEINE] was run?
The Phospholipidosis was “Negative: based on the absence of positive reported data from WMDD”.

Which Phospholipidosis does the source give for CCOC(=O)[C@H](CCc1ccccc1)N[C@@H](C)C(=O)N1[C@H](C(=O)O)C[C@H]2CCCC[C@@H]21 [TRANDOLAPRIL] here?
Its Phospholipidosis is “Negative: based on the absence of positive reported data from WMDD”.

With C[C@]1(Cn2ccnn2)[C@H](C(=O)O)N2C(=O)C[C@H]2S1(=O)=O [TAZOBACTAM] as the molecule, how does the Phospholipidosis read?
Its Phospholipidosis is “Negative: based on the absence of positive reported data from WMDD”.

For CCOc1ccc(NC(C)=O)cc1 [PHENACETIN], which Phospholipidosis is on record?
The Phospholipidosis was “Positive: strong inducer confirmed by electron microscopy”.

Which Phospholipidosis does the source give for CCc1c(C)[nH]c2c1C(=O)C(CN1CCOCC1)CC2 (stereo not given) [MOLINDONE] here?
Its Phospholipidosis is “Negative: based on the absence of positive reported data from WMDD”.
